Values of other authors, collected in publication PMC9026148, “Pre-Clinical Study Evaluating Novel Protein Phosphatase 2A Activators as Therapeutics for Neuroblastoma” (Cancers, 2022).

Test system: CYP3A4
Design: method as in PMID 32954276
Conditions: at 1 h, cited from earlier work

SMILES: O=S(=O)(N[C@@H]1CCC[C@H](N2c3ccccc3Oc3ccccc32)[C@H]1O)c1ccc(OC(F)(F)F)cc1 [NZ-8-061]
- time-dependent inhibition of CYP3A4 (fold shift): > 30 fold
- IC50 (time-dependent inhibition): < 1000 nM
